Experiments:
DU-145 [1] = assay: MTT assay for cell cytotoxicity; assay type: cell-based, human; conditions: Homo sapiens, 72 h, at least three independent experiments, read-out: MTT assay (IC50 ± SD) DU-145
Procedure, shortened: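 Seeded cells pre-incubated 24 h, then treated 72 h with 0.15–15 µM compound in RPMI-1640/5% FBS at 37 °C. MTT (1 mg/mL) added for 4 h, formazan dissolved in DMSO, absorbance at 560 nm; IC50 from mean of ≥3 independent experiments.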

PC-3 = assay: MTT assay for cell cytotoxicity; assay type: cell-based, human; conditions: Homo sapiens, 72 h, at least three independent experiments, read-out: MTT assay (IC50 ± SD) PC-3
RPMI-8226 = assay: NCI in vitro 60-cell drug screen (SRB assay); assay type: cell-based; conditions: RPMI-8226 (Leukemia); 10^-5 molar concentration; 48 hours
SR = assay: NCI in vitro 60-cell drug screen (SRB assay); assay type: cell-based; conditions: SR (Leukemia); 10^-5 molar concentration; 48 hours
A549/ATCC = assay: NCI in vitro 60-cell drug screen (SRB assay); assay type: cell-based; conditions: A549/ATCC (Non-small cell lung cancer); 10^-5 molar concentration; 48 hours
HOP-62 = assay: NCI in vitro 60-cell drug screen (SRB assay); assay type: cell-based; conditions: HOP-62 (Non-small cell lung cancer); 10^-5 molar concentration; 48 hours
NCI-H226 = assay: NCI in vitro 60-cell drug screen (SRB assay); assay type: cell-based; conditions: NCI-H226 (Non-small cell lung cancer); 10^-5 molar concentration; 48 hours
NCI-H322M = assay: NCI in vitro 60-cell drug screen (SRB assay); assay type: cell-based; conditions: NCI-H322M (Non-small cell lung cancer); 10^-5 molar concentration; 48 hours
KM12 = assay: NCI in vitro 60-cell drug screen (SRB assay); assay type: cell-based; conditions: KM12 (Colon cancer); 10^-5 molar concentration; 48 hours
SW-620 = assay: NCI in vitro 60-cell drug screen (SRB assay); assay type: cell-based; conditions: SW-620 (Colon cancer); 10^-5 molar concentration; 48 hours
SF-295 = assay: NCI in vitro 60-cell drug screen (SRB assay); assay type: cell-based; conditions: SF-295 (CNS cancer); 10^-5 molar concentration; 48 hours
SF-539 = assay: NCI in vitro 60-cell drug screen (SRB assay); assay type: cell-based; conditions: SF-539 (CNS cancer); 10^-5 molar concentration; 48 hours
SNB-19 = assay: NCI in vitro 60-cell drug screen (SRB assay); assay type: cell-based; conditions: SNB-19 (CNS cancer); 10^-5 molar concentration; 48 hours
MALME-3M = assay: NCI in vitro 60-cell drug screen (SRB assay); assay type: cell-based; conditions: MALME-3M (Melanoma); 10^-5 molar concentration; 48 hours
M14 = assay: NCI in vitro 60-cell drug screen (SRB assay); assay type: cell-based; conditions: M14 (Melanoma); 10^-5 molar concentration; 48 hours
SK-MEL-2 = assay: NCI in vitro 60-cell drug screen (SRB assay); assay type: cell-based; conditions: SK-MEL-2 (Melanoma); 10^-5 molar concentration; 48 hours
SK-MEL-5 = assay: NCI in vitro 60-cell drug screen (SRB assay); assay type: cell-based; conditions: SK-MEL-5 (Melanoma); 10^-5 molar concentration; 48 hours
IGROV1 = assay: NCI in vitro 60-cell drug screen (SRB assay); assay type: cell-based; conditions: IGROV1 (Ovarian cancer); 10^-5 molar concentration; 48 hours
OVCAR-5 = assay: NCI in vitro 60-cell drug screen (SRB assay); assay type: cell-based; conditions: OVCAR-5 (Ovarian cancer); 10^-5 molar concentration; 48 hours
OVCAR-8 = assay: NCI in vitro 60-cell drug screen (SRB assay); assay type: cell-based; conditions: OVCAR-8 (Ovarian cancer); 10^-5 molar concentration; 48 hours
ACHN = assay: NCI in vitro 60-cell drug screen (SRB assay); assay type: cell-based; conditions: ACHN (Renal cancer); 10^-5 molar concentration; 48 hours
SN12C = assay: NCI in vitro 60-cell drug screen (SRB assay); assay type: cell-based; conditions: SN12C (Renal cancer); 10^-5 molar concentration; 48 hours
DU-145 [2] = assay: NCI in vitro 60-cell drug screen (SRB assay); assay type: cell-based; conditions: DU-145 (Prostate cancer); 10^-5 molar concentration; 48 hours
BT-549 = assay: NCI in vitro 60-cell drug screen (SRB assay); assay type: cell-based; conditions: BT-549 (Breast cancer); 10^-5 molar concentration; 48 hours
60 cell lines = assay: NCI in vitro 60-cell drug screen (SRB assay), whole panel statistics; conditions: mean over the cell panel; 10^-5 molar concentration; 48 hours
EKVX = assay: NCI in vitro 60-cell drug screen (SRB assay); assay type: cell-based; conditions: EKVX (Non-small cell lung cancer); 10^-5 molar concentration; 48 hours

| Compound | IC50 (DU-145 [1]) [µM] | IC50 (PC-3) [µM] | Growth percent (RPMI-8226) [%] | Growth percent (SR) [%] | Growth percent (A549/ATCC) [%] | Growth percent (HOP-62) [%] | Growth percent (NCI-H226) [%] | Growth percent (NCI-H322M) [%] | Growth percent (KM12) [%] | Growth percent (SW-620) [%] | Growth percent (SF-295) [%] | Growth percent (SF-539) [%] | Growth percent (SNB-19) [%] | Growth percent (MALME-3M) [%] | Growth percent (M14) [%] | Growth percent (SK-MEL-2) [%] | Growth percent (SK-MEL-5) [%] | Growth percent (IGROV1) [%] | Growth percent (OVCAR-5) [%] | Growth percent (OVCAR-8) [%] | also measured |
| --- | --- | --- | --- | --- | --- | --- | --- | --- | --- | --- | --- | --- | --- | --- | --- | --- | --- | --- | --- | --- | --- |
| CN1CCN(c2nc3ccccc3c3c(=O)c4cc(Cl)ccc4sc23)CC1 [Compound 8, 10-Chloro-6-(4-methylpiperazin-1-yl)-12H-thiochromeno[2,3-c]q uinolin-12-one] | 12.9 ± 0.26 | 7.18 ± 2.45 | 91.11 | 86.41 | 99.80 | 49.41 | 85.67 | 77.04 | 110.71 | 95.50 | 91.69 | 85.30 | 87.07 | 108.36 | 102.15 | 97.53 | 99.54 | 80.08 | 98.14 | 89.44 | Growth percent (ACHN): 89.73%; Growth percent (SN12C): 83.03%; Growth percent (DU-145 [2]): 103.45%; Growth percent (BT-549): 96.25%; Growth percent, Mean (60 cell lines): 86.81% |
| O=C(O)c1c(Sc2ccc(Cl)cc2)c(O)nc2ccccc12 [Compound 2, 3-((4-Chlorophenyl)thio)-2-hydroxyquinoline-4-carboxylic acid] | > 15 | > 15 | 98.10 | 106.33 | 107.34 | 116.47 | 105.64 | 101.10 | 112.61 | 96.92 | 98.99 | 110.22 | 97.17 | 107.05 | 106.90 | 119.91 | 98.07 | 103.57 | 112.47 | 114.68 | Growth percent (EKVX): 89.47%; Growth percent (ACHN): 113.47%; Growth percent (SN12C): 95.83%; Growth percent (DU-145 [2]): 115.22%; Growth percent (BT-549): 124.20%; Growth percent, Mean (60 cell lines): 102.11% |
| O=c1c2cc(Cl)ccc2sc2c(N3CCOCC3)nc3ccccc3c12 [Compound 13, 10-Chloro-6-morpholino-12H-thiochromeno[2,3-c]quinolin-12-one] | > 15 | > 15 | 89.54 | 88.91 | 92.97 | 70.77 | 88.01 | 88.41 | 88.68 | 96.18 | 93.62 | 82.38 | 99.37 | 118.84 | 110.35 | 98.77 | 95.88 | 80.90 | 95.97 | 83.66 | Growth percent (ACHN): 82.54%; Growth percent (SN12C): 96.81%; Growth percent (DU-145 [2]): 110.81%; Growth percent (BT-549): 113.81%; Growth percent, Mean (60 cell lines): 90.52% |
